Source: patent publication US8969247B2, “Method for controlling aquatic weeds” (BASF SE, priority 2005, dated 2015)

Legend:
Assay type in all cases: in vivo
Hydrilla verticillata [1] = assay: Experiment 1: greenhouse static exposure of hydrilla to topramezone; conditions: 500 ppb
Procedure: (§1) Greenhouse and shade house tests were initiated to evaluate the effects of HPPD-inhibitors, exemplary topramezone and mesotrione, for the control of aquatic weeds, exemplary for the control of Hydrilla verticillata.
(§2) To begin the experiment, containers were filled and maintained with a volume of 4000 ml of distilled water at room temperature (24° C.). To each container, an established hydrilla plant (potted in sand mixture) was transferred into the water column. Hydrilla plants were selected for uniformity and length of shoot growth (approx 15 cm). Plants were allowed to equilibrate in the columns for 24 hrs prior to herbicide treatment. Experimental treatments included an untreated control and topramezone at 500 ppb. Treatments were applied to water columns by the use of a pipette. Amount of herbicide applied was based on the total volume of the containers (4000 ml). After initial herbicide treatment, the water columns were gently stirred to ensure uniform distribution. Treatments were arranged as a complete random design with 3 replications. Each container was considered the experimental unit. Greenhouse conditions were maintained at 24/18° C. (day/night) cycle for the duration of the experiment. Natural day length was supplemented with halogen lighting to provide a 14 hr photoperiod. Water level in the containers was periodically checked and maintained at the 4000 ml level for the duration of the study. At the end of four weeks, hydrilla shoot length and fresh weights were recorded.

Hydrilla verticillata [2] = assay: Experiment 2: shade house (outdoor) static exposure of hydrilla to topramezone; conditions: for Hydrilla Shoot Weight: 8 weeks after treatment, dry weight biomass, control 1.5 g, LSD (0.05) 0.2
Procedure: as §1
Experiment 2 was conducted under shade house (outdoor) conditions. Four 4-liter pots were filled with 15 to 20 cm of sand medium plus amended fertilizer (15 grams Osmocote®^1 19-6-12). Four actively growing Hydrilla verticillata tips (10 to 15 cm in length) were planted 1 to 2 cm deep in medium. The four 4-liter pots were placed in 100-liter containers and covered fully with tap water. Plants were treated 15 days after planting once plant elongation and active growth were observed. There were three 100-liter containers per water treatment (three replications) with four sub-sample 4-liter pots and four Hydrilla verticillata plants per 4-liter pot. Treatments were arranged as a complete random design. ^1 Osmocote®—manufactured by: Scotts-Sierra Horticutural Products Company, Marysville, Ohio 43401 U.S.A
Water treatments of 50 ppb, 75 ppb, 100 ppb, 200 ppb, and 400 ppb of topramezone were installed. Plants were harvested 8 weeks after initial water treatment to determine dry weight biomass reductions compared to the untreated check.

Hydrilla verticillata [3] = assay: Experiment 3: greenhouse static exposure of hydrilla to mesotrione; conditions: 500 ppb
Procedure: as §1
as §2, with “mesotrione” for “topramezone”

[4] = approximately 14 days after treatment

## Cc1c(C(=O)c2cnn(C)c2O)ccc(S(C)(=O)=O)c1C1=NOCC1 [topramezone]
Hydrilla verticillata [1]; [4]
  Visual observations: significant bleaching and reddening in the new grown tips
Hydrilla verticillata [1]; end of the study (4 weeks)
  Reduction in shoot length and biomass (Student's t-Test): significant reductions in both shoot length and biomass
Hydrilla verticillata [1]; over the course of the study
  Effect on hydrilla tissue vs. the untreated control: stunting and dieback of hydrilla tissue
Hydrilla verticillata [1]; static exposure, 4 weeks after treatment, control 17 g
  Hydrilla Fresh Weight: 0.3 grams
Hydrilla verticillata [1]; static exposure, 4 weeks after treatment, control 37 cm
  Hydrilla Shoot Length: 6 cm
Hydrilla verticillata [2]; 50 ppb
  Hydrilla Shoot Weight: 1.3 grams
Hydrilla verticillata [2]; 50 to 400 ppb, end of the study (8 weeks)
  Reduction in shoot biomass vs. the untreated control: significant reductions in shoot biomass
Hydrilla verticillata [2]; 75 ppb
  Hydrilla Shoot Weight: 0.8 grams
Hydrilla verticillata [2]; 100 ppb
  Hydrilla Shoot Weight: 0.8 grams
Hydrilla verticillata [2]; 200 ppb
  Hydrilla Shoot Weight: 0.7 grams
Hydrilla verticillata [2]; 400 ppb
  Hydrilla Shoot Weight: 0.6 grams

## CS(=O)(=O)c1ccc(C(=O)C2C(=O)CCCC2=O)c([N+](=O)[O-])c1 [mesotrione]
Hydrilla verticillata [3]; [4]
  Visual observations: significant bleaching and reddening in the new grown tips
Hydrilla verticillata [3]; end of the study (4 weeks)
  Reduction in shoot biomass (Student's t-Test): significant reduction in shoot biomass
  Reduction in shoot length (Student's t-Test): did not observe a significant reduction in shoot length
Hydrilla verticillata [3]; static exposure, 4 weeks after treatment, control 4.4 g
  Hydrilla Fresh Weight: 1.4 grams
Hydrilla verticillata [3]; static exposure, 4 weeks after treatment, control 24 cm
  Hydrilla Shoot Length: 16 cm
